Data from ChEMBL document CHEMBL5029163, “Enhancing the Pharmacokinetic Profile of Interleukin 2 through Site-Specific Conjugation to a Selective Small-Molecule Transthyretin Ligand” (J Med Chem, 2021).
The source made the active and inactive calls. The rule behind the calls is not given here.

Legend:
Transthyretin [1] = molecular target: T1, Transthyretin (Homo sapiens, UniProt P02766); experiment: Binding affinity to human TTR assessed as binding constant in PBS buffer at pH 7.4 measured after 20 mins fluorescence polarization assay
Transthyretin [2] = molecular target: T1, Transthyretin; experiment: Binding affinity to human TTR in human serum assessed as target occupancy at 10 uM measured every 15 mins for 6 hrs by fluorescent probe exclusion selectivity assay; type: cell-free
[3] = molecular target: Interleukin-2 (Homo sapiens) (UniProt P60568); experiment: Induction of stability of human recombinant interleukin 2 assessed as binding affinity to human TTR in human serum by measuring target occupancy at 10 uM measured every 15 mins for 6 hrs by fluorescent probe exclusion selectivity assay; type: cell-free
[4] = molecular target: Interleukin-2 (Homo sapiens) (UniProt P60568); experiment: Induction of stability of human recombinant interleukin 2 assessed as half life in Sprague-Dawley rat plasma at 0.8 mg/kg, iv measured up to 24 hrs by ELISA (Rvb= 1.26+/-0.18 hrs); type: organism-based; settings: time hrs <=24
[5] = molecular target: Interleukin-2 (Homo sapiens) (UniProt P60568); experiment: Induction of stability of human recombinant interleukin 2 assessed as mean residence time in Sprague-Dawley rat at 0.8 mg/kg, iv measured up to 24 hrs by ELISA (Rvb= 1.04+/-0.07 hrs); type: organism-based; settings: time hrs <=24
[6] = molecular target: Interleukin-2 (Homo sapiens) (UniProt P60568); experiment: Induction of stability of human recombinant interleukin 2 assessed as effect on mouse CTLL-2 cell proliferation in presence of TTR measured after 48 hrs by WST-1 assay

Chain of Interleukin-2 (Homo sapiens) (P60568 whole entry): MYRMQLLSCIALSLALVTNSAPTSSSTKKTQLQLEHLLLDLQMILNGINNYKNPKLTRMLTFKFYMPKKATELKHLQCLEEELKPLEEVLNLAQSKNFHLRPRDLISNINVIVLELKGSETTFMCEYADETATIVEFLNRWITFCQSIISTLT

Kd (Transthyretin [1]): 516 nM
Occ (Transthyretin [2]): 51.8%
Occ [3]: 52.6%
T1/2 [4]: 5.22 h
MRT [5]: 8.76 h
Activity [6]: inactive
Compound: Cc1n[nH]c(C)c1CCCOc1cc(OCCCc2cn(CCOCCOCCOCCOCCNC(=O)C3CCC(CN4C(=O)C=CC4=O)CC3)nn2)cc(C(=O)O)c1 (stereo unspecified)
